# Experimental data: patent US8871807B2, “Detergents capable of cleaning, bleaching, sanitizing and/or disinfecting textiles including sulfoperoxycarboxylic acids” (Ecolab USA Inc., priority 2008, dated 2014)
# Read-outs that look alike come from different tables or passages of the source.
# How the values were obtained:
# [1] = Stability of sulfonated peracids in aqueous solution, half time; format: physicochemical
# Description: A study was performed to determine the stability of various sulfonated peracids in aqueous solutions. The sulfonated peracids were compared under the same controlled conditions to determine how the structural differences of the selected peracids impacted stability. The sulfonated peracids studied included both mid-chain sulfonated and terminally sulfonated peracids.
# Each peracid was tested at a concentration of 50 ppm under ambient conditions. Each individual solution was prepared from the corresponding peracid concentrate by adding it to a 0.05 M pH 5.0 citrate buffer, and adjusting the final solution pH to 5.0 with the addition of a small amount of caustic.
# The peracid concentration over time was measured using a kinetic iodometric titration method. For comparison, 50 ppm peroxyacetic acid (POAA), at the same concentration and under the same conditions, was also included in the stability study. Based on the results seen in FIG. 7, the half time of each individual peracid was estimated and the results are summarized in the table below.
# [2] = Coupling ability study, 1-octanoic acid by liquid chromatography; format: physicochemical; conditions: for 1-Octanoic acid (ppm) coupled: 0.4 grams 1-octanoic acid added to 20 g peracid solution in hydrogen peroxide, filtered lower phase
# Description: A study was performed to determine the coupling/hydrotropic properties of various sulfonated peracids in aqueous solutions. The ability of the selected peracids to couple octanoic acid was measured.
# Twenty grams (20 g) of each peracid solution was diluted into a beaker containing hydrogen peroxide. […] To each of these solutions, 0.4 grams of 1-octanoic acid was added. The octanoic acid initially floated to the tops of the solutions. The solutions were then stirred for 5-10 minutes with magnetic stir bars at 1,000 rpm. The solutions were then centrifuged for 20 minutes at 3,000-5,000 rpm. The lower phase of each solution was then collected. The lower phases were further clarified by filtration through 0.45 micron syringe filters. All of the filtrates appeared clear and homogenous. The filtered solutions were analyzed by liquid chromatography for 1-octaonic acid.
# Contact angle study = format: physicochemical; conditions: concentrate diluted 250 times with DI water (11-SPOUA 85 times)
# Description: A study was performed to measure the wetting properties of various sulfonated peracids in aqueous solutions, by measuring the contact angle of the individual solution on different surfaces.
# A FTA32 Contact Angle Goniometer with image processing by FTA 32 software was used to measure the contact angle. The contact angle was measured on both stainless steel, and polypropylene surfaces. The peracid concentrates shown in the table below were diluted 250 times with DI water. However, the 11-SPOUA was diluted 85 times with DI water, given the lower levels of peracid precursor in the formula.
# The results shown are the average of at least three contact angle measurements.
# [3] = pH 4
# Excerpt: The issue of low solubility when using long chain peracids has been addressed by increasing the pH to above 7. […] Further, bleaching efficacy decreases proportionally with every pH unit increase over about 7.
# [4] = Powder storage stability at elevated temperature; format: physicochemical; conditions: about 140° F.
# Description: The compositions of the present invention also show enhanced stability compared to conventional peroxygen containing compositions. In some embodiments, the compositions of the present invention are stable for at least about 1 year at room temperature. In some embodiments, the compositions of the present invention are stable at about 100° F. for at least 30 days. In other embodiments, the compositions of the present invention are stable at about 140° F. for at least 30 days. For example, 11-sulfoundecanoic peroxyacid (Compound D) is stable as a powder system at about 140° F. for at least 30 days.
# [5] = Storage stability, loss of active oxygen by titrimetry; format: physicochemical; conditions: 4 weeks
# Description: The stability of a sulfoperoxycarboxylic acid of the present invention, i.e., 11-sulfoundecaneperoxoic acid (Compound D), was compared to that of phthalimidoperoxyhexanoic acid (PAP). The stability data for the PAP sample were taken from U.S. Pat. No. 5,994,284, assigned to Clariant GmbH. Samples of the compound of the present invention were stored for four (4) weeks at various temperatures. The loss of active oxygen was measured by titrimetry.
# [6] = 4 weeks, data from U.S. Pat. No. 5,994,284, cited from earlier work
# [7] = stated for comparison; cited from earlier work
# B. subtilis = assay: Sporicidal efficacy at 14 days, EN 13704; format: cell-based; conditions: 30 ppm peroxyoctanoic acid alone; spore species not specified
# Description: The test method followed was according to European Standard EN 13704: Quantitative Suspension Test for the Evaluation of Sporicidal Activity of Chemical Disinfectants and Antiseptics Used in Food, Industrial, Domestic and Institutional Areas. Generally, a test suspension of bacterial spores in a solution of interfering substance, simulating clean conditions, was added to a prepared sample of the test formulation diluted in hard water. The mixture was maintained at the specific temperature and time desired. At this contact time, an aliquot is taken; the sporicidal action in this portion was immediately neutralized or suppressed by a validated method. The number of surviving bacterial spores in each sample was determined and the reduction in viable counts was calculated. A test was run to determine the stability and sporicidal efficacy of a composition of the present invention against spores. The composition tested included the sulfonated peroleic acid product, and an amount of peroxyoctanoic acid. The test method used was the European Standard EN 13704: Quantitative Suspension Test for the Evaluation of Sporicidal Activity of Chemical Disinfectants and Antiseptics Used in Food, Industrial, Domestic and Institutional Areas, described above.
# Mycobacterium bovis BCG = format: cell-based; conditions: 300 ppm POOA, pH 6.5, room temperature
smiles,measurement,setting,value
"O=C(CS(=O)(=O)O)OO [Compound 2-SPOAA, 2-Sulfoperoxyacetic acid]",half-life at 50 ppm,"[1]; buffer, pH 5",37 h
same,1-Octanoic acid (ppm) coupled,[2],160 ppm
same,"Contact Angle (degree), Polypropylene",Contact angle study,75 degree
same,"Contact Angle (degree), Stainless Steel",Contact angle study,77 degree
"O=C(CCCCCS(=O)(=O)O)OO [Compound 6-SPOHXA, 6-sulfoperoxyhexanoic acid]",half-life at 50 ppm,"[1]; buffer, pH 5",88 h
same,1-Octanoic acid (ppm) coupled,[2],240 ppm
same,"Contact Angle (degree), Polypropylene",Contact angle study,84 degree
same,"Contact Angle (degree), Stainless Steel",Contact angle study,77 degree
"O=C(CCCCCCCCCCS(=O)(=O)O)OO [Compound D, 11-sulfoundecaneperoxoic acid]",solubility,[3],about 1.3%
same,stable as a powder system,[4],at least 30 days
same,Loss of Active Oxygen (%),[5]; 38 ° C.,7.9%
same,Loss of Active Oxygen (%),[5]; 50 ° C.,15.7%
same,Loss of Active Oxygen (%),[5]; Room Temp.,0.78%
same,half-life at 50 ppm,"[1]; buffer, pH 5",91 h
same,1-Octanoic acid (ppm) coupled,[2],890 ppm
same,dissolution of peracid solution in hydrogen peroxide,[2]; 20 g of peracid solution diluted into hydrogen peroxide,dissolved only partially
same,"Contact Angle (degree), Polypropylene",Contact angle study,77 degree
same,"Contact Angle (degree), Stainless Steel",Contact angle study,72 degree
"O=C(CCCCCN1C(=O)c2ccccc2C1=O)OO [PAP, phthalimidoperoxyhexanoic acid]",Loss of Active Oxygen (%),[6]; 25 ° C.,1.4%
same,Loss of Active Oxygen (%),[6]; 40 ° C.,2.0%
same,Loss of Active Oxygen (%),[6]; 50 ° C.,12.0%
"CC(=O)OO [POAA, peroxyacetic acid]",half-life at 50 ppm,"[1]; 50 ppm peracid, 0.05 M citrate buffer pH 5.0, ambient conditions, read-out: t1/2 (converted)",115 h
same,percarboxylic acid formation constant (Keq),[7],2.70
"CCCCCCCC(=O)OO [POOA, peroxyoctanoic acid]",reduction of spores,B. subtilis,did not result in a reduction
same,Log Reduction,Mycobacterium bovis BCG; 2.5 min,3.48
same,Log Reduction,Mycobacterium bovis BCG; 5 min,<4.31
